The IC50 is the concentration needed to halve the response being measured.

Data on 24 compounds can be found in US12624018B1, “Inhibitors of RIPK2 and medical uses thereof” (Odyssey Therapeutics, Inc., priority 2022, dated 2026).

This assay has as its target T1, RIPK2 enzyme (Homo sapiens, UniProt O43353).
T1 construct: purchased Carna 09-128
The assay is described as follows: RIPK2 inhibition (ADP-Glo Kinase Assay). The format is biochemical. Particulars: RIPK2 5 nM, ATP 150 μM, MBP substrate, read-out: RIPK2 IC50. How it is done:
RIPK2 inhibition was measured as follows:
The V9102 ADP-Glo Kinase Assay (including ultrapure ATP, 10 mM) was purchased from Promega. Native swine MBP was used as the substrate for the reaction and was purchased from SignalChem Biotech (catalogue number M42-51N). Assay buffer used for the assay consisted of the following components: MgCl2 (final concentration of 10 mM), Brij-35 (0.01%), DTT (final concentration of 2 mM), BSA (0.05%), EGTA (final concentration of 1 mM), and HEPE (pH 7.5 at final concentration of 50 mM).
Method: In a 384 well plate, 10 nL of test compound was dispensed using Echo550 and mixed with RIPK2 enzyme (final concentration of 5 nM) in assay buffer for 30 minutes at room temperature. […] Then ADP-Glo reagent was added and incubated for 60 min at room temperature. Last, Kinase Detection Reagent was added to the mixture and incubated for 60 min. The resulting luminescent signal was measured with an Envision reader to determine the amount of ADP produced. All plates contained vehicle controls (10 nL DMSO only) as a reference for the high control (0% kinase inhibition), and wells with no RIPK2 enzyme as reference for low control (100% kinase inhibition). Data were analyzed to determine the percent inhibition of ADP production in the presence of test compound using both low and high controls.

Where only a bound is given, the exact number is not on record here.

T1 sequence (O43353 1-299 limits assumed): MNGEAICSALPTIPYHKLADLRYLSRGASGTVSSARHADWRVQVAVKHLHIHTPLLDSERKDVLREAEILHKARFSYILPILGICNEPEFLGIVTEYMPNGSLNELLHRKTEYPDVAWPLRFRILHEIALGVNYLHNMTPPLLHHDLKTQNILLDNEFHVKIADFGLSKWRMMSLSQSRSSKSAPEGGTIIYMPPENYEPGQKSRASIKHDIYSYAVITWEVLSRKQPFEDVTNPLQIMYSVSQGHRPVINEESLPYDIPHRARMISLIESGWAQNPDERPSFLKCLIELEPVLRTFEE

`Cc1cc(CC(=O)Nc2cnn(C(C)(C)C)c2)ccc1Oc1ccnc2ccc(S(=O)(=O)C3CC(N)C3)cc12` (single isomer, unassigned) [Compound 282, 2-(4-((6-((-3-aminocyclobutyl)sulfonyl)quinolin-4-yl)oxy)-3-methylphenyl)-N-(1-(tert-butyl)-1H-pyrazol-4-yl)acetamide]: the IC50 was under 2.5 nM. Next, `Cc1cc(CC(=O)Nc2cnn(C(C)(C)C)c2)ccc1Oc1ccnc2ccc(S(=O)(=O)C3CC(N)C3)cc12` (single isomer, unassigned) [Compound 283, 2-(4-((6-((-3-aminocyclobutyl)sulfonyl)quinolin-4-yl)oxy)-3-methylphenyl)-N-(1-(tert-butyl)-1H-pyrazol-4-yl)acetamide]: under 2.5 nM; `Cc1c(Oc2ccnc3ccc(S(=O)(=O)C4CC(O)C4)cc23)ccc(CC(=O)Nc2cnn(C(C)(C)C)c2)c1F` (single isomer, unassigned) [Compound 285, N-(1-(tert-butyl)-1H-pyrazol-4-yl)-2-(2-fluoro-4-((6-((-3-hydroxycyclobutyl)sulfonyl)quinolin-4-yl)oxy)-3-methylphenyl)acetamide]: under 2.5 nM. With `Cc1c(Oc2ccnc3ccc(S(=O)(=O)C4CC(O)C4)cc23)ccc(CC(=O)Nc2cnn(C(C)(C)C)c2)c1F` (single isomer, unassigned) [Compound 286, N-(1-(tert-butyl)-1H-pyrazol-4-yl)-2-(2-fluoro-4-((6-((-3-hydroxycyclobutyl)sulfonyl)quinolin-4-yl)oxy)-3-methylphenyl)acetamide], the IC50 was under 2.5 nM. Next, `Cc1c(Oc2ccnc3ccc(S(=O)(=O)C4CC(N)C4)cc23)ccc(CC(=O)Nc2cnn(C(C)(C)C)c2)c1F` (single isomer, unassigned) [Compound 287, 2-(4-((6-((-3-aminocyclobutyl)sulfonyl)quinolin-4-yl)oxy)-2-fluoro-3-methylphenyl)-N-(1-(tert-butyl)-1H-pyrazol-4-yl)acetamide]: under 2.5 nM; `Cc1c(Oc2ccnc3ccc(S(=O)(=O)C4CC(N)C4)cc23)ccc(CC(=O)Nc2cnn(C(C)(C)C)c2)c1F` (single isomer, unassigned) [Compound 288, 2-(4-((6-((-3-aminocyclobutyl)sulfonyl)quinolin-4-yl)oxy)-2-fluoro-3-methylphenyl)-N-(1-(tert-butyl)-1H-pyrazol-4-yl)acetamide]: under 2.5 nM; `Cc1cc(CC(=O)Nc2cnn(C(C)(C)C)c2)ccc1Oc1ccnc2ccc(N3C(=O)CCC3C)cc12` (single isomer, unassigned) [Compound 291, N-(1-(tert-butyl)-1H-pyrazol-4-yl)-2-(3-methyl-4-((6-(2-methyl-5-oxopyrrolidin-1-yl)quinolin-4-yl)oxy)phenyl) acetamide]: under 2.5 nM. Under `Cc1cc(CC(=O)Nc2cnn(C(C)(C)C)c2)ccc1Oc1ccnc2ccc(N3C(=O)CCC3C)cc12` (single isomer, unassigned) [Compound 292, N-(1-(tert-butyl)-1H-pyrazol-4-yl)-2-(3-methyl-4-((6-(2-methyl-5-oxopyrrolidin-1-yl)quinolin-4-yl)oxy)phenyl) acetamide] stands under 2.5 nM; under `Cc1c(Oc2ccnc3ccc(N4C(=O)CCC4C)cc23)ccc(CC(=O)Nc2cnn(C(C)(C)C)c2)c1F` (single isomer, unassigned) [Compound 296, N-(1-(tert-butyl)-1H-pyrazol-4-yl)-2-(2-fluoro-3-methyl-4-((6-(2-methyl-5-oxopyrrolidin-1-yl)quinolin-4-yl)oxy)phenyl) acetamide], under 2.5 nM. Next, `Cc1c(Oc2ccnc3ccc(N4C(=O)CCC4C)cc23)ccc(CC(=O)Nc2cnn(C(C)(C)C)c2)c1F` (single isomer, unassigned) [Compound 297, N-(1-(tert-butyl)-1H-pyrazol-4-yl)-2-(2-fluoro-3-methyl-4-((6-(2-methyl-5-oxopyrrolidin-1-yl)quinolin-4-yl)oxy)phenyl) acetamide]: under 2.5 nM. Turning to `Cc1c(Oc2ccnc3ccc(C4CCNC4=O)cc23)ccc(CC(=O)Nc2cnn(C(C)(C)C)c2)c1F` (single isomer, unassigned) [Compound 304, N-(1-(tert-butyl)-1H-pyrazol-4-yl)-2-(2-fluoro-3-methyl-4-((6-(2-oxopyrrolidin-3-yl)quinolin-4-yl)oxy)phenyl)acetamide], the half-inhibitory concentration (IC50) is under 2.5 nM. Under `Cc1c(Oc2ccnc3ccc(C4CCNC4=O)cc23)ccc(CC(=O)Nc2cnn(C(C)(C)C)c2)c1F` (single isomer, unassigned) [Compound 305, N-(1-(tert-butyl)-1H-pyrazol-4-yl)-2-(2-fluoro-3-methyl-4-((6-(2-oxopyrrolidin-3-yl)quinolin-4-yl)oxy)phenyl)acetamide] stands under 2.5 nM. As to `Cc1cc(CC(=O)Nc2cnn(C(C)(C)C)c2)ccc1Oc1ccnc2ccc(N3CC(CO)OC3=O)cc12` (single isomer, unassigned) [Compound 317, N-(1-(tert-butyl)-1H-pyrazol-4-yl)-2-(4-((6-(5-(hydroxymethyl)-2-oxooxazolidin-3-yl)quinolin-4-yl)oxy)-3-methylphenyl) acetamide], the IC50 is under 2.5 nM.

As for `Cc1cc(CC(=O)Nc2cnn(C(C)(C)C)c2)ccc1Oc1ccnc2ccc(N3CC(CO)OC3=O)cc12` (single isomer, unassigned) [Compound 318, N-(1-(tert-butyl)-1H-pyrazol-4-yl)-2-(4-((6-(5-(hydroxymethyl)-2-oxooxazolidin-3-yl)quinolin-4-yl)oxy)-3-methylphenyl) acetamide], the IC50 is under 2.5 nM. Next, `Cc1cc(CC(=O)Nc2cnn(C(C)(C)C)c2)ccc1Oc1ccnc2ccc(N3CC(CN)OC3=O)cc12` (single isomer, unassigned) [Compound 319, 2-(4-((6-(5-(aminomethyl)-2-oxooxazolidin-3-yl)quinolin-4-yl)oxy)-3-methylphenyl)-N-(1-(tert-butyl)-1H-pyrazol-4-yl)acetamide]: under 2.5 nM; `Cc1cc(CC(=O)Nc2cnn(C(C)(C)C)c2)ccc1Oc1ccnc2ccc(N3CC(CN)OC3=O)cc12` (single isomer, unassigned) [Compound 320, 2-(4-((6-(5-(aminomethyl)-2-oxooxazolidin-3-yl)quinolin-4-yl)oxy)-3-methylphenyl)-N-(1-(tert-butyl)-1H-pyrazol-4-yl)acetamide]: under 2.5 nM; `Cc1cc(CC(=O)Nc2cnn(C(C)(C)C)c2)ccc1Oc1ccnc2ccc([S+](C)[O-])cc12` (single isomer, unassigned) [Compound 321, N-(1-(tert-butyl)-1H-pyrazol-4-yl)-2-(3-methyl-4-((6-(methylsulfinyl)quinolin-4-yl)oxy)phenyl)acetamide]: under 2.5 nM. For the compound `Cc1cc(CC(=O)Nc2cnn(C(C)(C)C)c2)ccc1Oc1ccnc2ccc([S+](C)[O-])cc12` (single isomer, unassigned) [Compound 322, N-(1-(tert-butyl)-1H-pyrazol-4-yl)-2-(3-methyl-4-((6-(methylsulfinyl)quinolin-4-yl)oxy)phenyl)acetamide], the IC50 was under 2.5 nM. Under `Cc1c(Oc2ccnc3ccc([S+](C)[O-])cc23)ccc(CC(=O)Nc2cnn(C(C)(C)C)c2)c1F` (single isomer, unassigned) [Compound 323, N-(1-(tert-butyl)-1H-pyrazol-4-yl)-2-(2-fluoro-3-methyl-4-((6-(methylsulfinyl)quinolin-4-yl)oxy)phenyl)acetamide] stands under 2.5 nM. In the case of `Cc1c(Oc2ccnc3ccc([S+](C)[O-])cc23)ccc(CC(=O)Nc2cnn(C(C)(C)C)c2)c1F` (single isomer, unassigned) [Compound 324, N-(1-(tert-butyl)-1H-pyrazol-4-yl)-2-(2-fluoro-3-methyl-4-((6-(methylsulfinyl)quinolin-4-yl)oxy)phenyl)acetamide], the IC50 is under 2.5 nM. Under `Cc1cc(CC(=O)Nc2cnn(C(C)(C)C)c2)ccc1Oc1ccnc2ccc(N3CCC(O)C3=O)cc12` (single isomer, unassigned) [Compound 326, N-(1-(tert-butyl)-1H-pyrazol-4-yl)-2-(4-((6-(3-hydroxy-2-oxopyrrolidin-1-yl)quinolin-4-yl)oxy)-3-methylphenyl) acetamide] stands under 2.5 nM; under `Cc1cc(CC(=O)Nc2cnn(C(C)(C)C)c2)ccc1Oc1ccnc2ccc(N3CCC(O)C3=O)cc12` (single isomer, unassigned) [Compound 327, N-(1-(tert-butyl)-1H-pyrazol-4-yl)-2-(4-((6-(3-hydroxy-2-oxopyrrolidin-1-yl)quinolin-4-yl)oxy)-3-methylphenyl) acetamide], under 2.5 nM.

As to `Cc1c(Oc2ccnc3ccc(C(=O)N4CCC(O)C4)cc23)ccc(CC(=O)Nc2cnn(C(C)(C)C)c2)c1F` (single isomer, unassigned) [Compound 351, N-(1-(tert-butyl)-1H-pyrazol-4-yl)-2-(2-fluoro-4-((6-(3-hydroxy-pyrrolidine-1-carbonyl)quinolin-4-yl)oxy)-3-methyl-phenyl) acetamide], the IC50 was under 2.5 nM. Regarding `Cc1c(Oc2ccnc3ccc(C(=O)N4CCC(O)C4)cc23)ccc(CC(=O)Nc2cnn(C(C)(C)C)c2)c1F` (single isomer, unassigned) [Compound 352, N-(1-(tert-butyl)-1H-pyrazol-4-yl)-2-(2-fluoro-4-((6-(3-hydroxy-pyrrolidine-1-carbonyl)quinolin-4-yl)oxy)-3-methyl-phenyl) acetamide], the IC50 was under 2.5 nM.
